Experimental data from patent US7741464B2, “Compositions and methods of using CRMP-1 and its fragments for treating cancer” (Advpharma Inc., priority 2007, dated 2010).
Where two headings read alike, the source gives them in different places.

Legend:
[1] = system: DU145 stable transfectants; assay: Chemosensitivity (MTT cytotoxicity) of stable transfectants; assay type: cell-based; conditions: Homo sapiens, read-out: IC50 of chemical agent
Description: (§1) Three human cancer cell lines, including lung cancer cell line H520 and two human prostate cancer cell lines (PC-3 and DU145) were applied for selection of stable transfectants. Four expression plasmids, including pNCRMP1, pNCN1, pNCN3, and pNCN4, and the pCI-neo vector (as control plasmid) were used for transfection, respectively. The general cultivation condition and transfection procedures were the same as described in Example 3. The transfected cells were further cultivated under the same conditions as their parental cell lines and selected with 0.6-1 mg antibiotic G418 per ml (Kao et al., Oncogene 16: 546-554 (1998); Xiaolin et al, Cancer Research 65: 9762-9770 (2005)).
(§2) Three agents, including caffeic acid phenethyl ester (CAPE; Sigma, US), Adriamycin™ (doxorubicin) (Pharmacia & Upjohn S.P.A. Milan, Italy), and paclitaxel (Taxol; Bristol-Myers Squibb Co., Wallingford, Conn.), were dissolved in DMSO (dimethyl sulfoxide; Sigma) for preparation of stock solution, respectively. A serial dilution was prepared with DPBS buffer for chemosensitivity tests. The human lung squamous carcinoma stable transfectants H520 were treated with both CAPE and Adriamycin™ (doxorubicin) for four different concentrations, e.g. 0.05, 0.01, 0.002, and 0.0004 mM, while the administering of paclitaxel was performed at different concentrations, e.g. 1000, 200, 40, and 8 nM. Both types of prostate stable transfectants were only treated with paclitaxel for eight concentrations ranging from 0.1 mM to 1.28 nM with 1/5 dilution each step.
(§3) MTT (3-(4,5-dimethylthiazol-2-yl)-2,5-diphenyltetrazolium bromide; Sigma, Inc.) assay (Monks et al., J. Natl. Cancer Inst. 83:757-766 (1991); Paull et al, J. Natl. Cancer Inst. 81:1088-1092 (1989)) was applied for studying the cytotoxic effect of indicated agent. The absorbance was measured both at 545 nm and at 690 nm (served as reference) using the 96-well spectrophotometer reader (Emax, Molecular Device Inc., California, US) (Chen et al., Yi Xue Za Zhi (Taipei) 46:7-16 (1990)). The relative growth inhibition was calculated as follows: Relative growth inhibition=100%×(1−(OD545nm (Treated cells)−OD690nm(Treated cells))÷(OD545nm(untreated cells)−OD690nm(untreated cells)))
(§4) The 50% inhibition concentration (IC50) was determined after graphical plotting of spectrophotometric measurements and interpolation by EXCEL software.

[2] = system: H520 stable transfectants; assay: as above; assay type: cell-based; conditions: Homo sapiens, read-out: IC50 of chemical agent
Description: as §1, §2, §3, §4

[3] = system: PZ-HPV-7 cells; assay: Chemosensitivity (MTT cytotoxicity) assay; assay type: cell-based; conditions: Homo sapiens; PZ-HPV-7, MTT; read-out: IC50 of chemical agent
Method: Three agents, including caffeic acid phenethyl ester (CAPE; Sigma, US), Adriamycin™ (doxorubicin) (Pharmacia & Upjohn S.P.A. Milan, Italy), and paclitaxel (Taxol; Bristol-Myers Squibb Co., Wallingford, Conn.), were dissolved in DMSO (dimethyl sulfoxide; Sigma) for preparation of stock solution, respectively. A serial dilution was prepared with DPBS buffer for chemosensitivity tests. […] Both types of prostate stable transfectants were only treated with paclitaxel for eight concentrations ranging from 0.1 mM to 1.28 nM with 1/5 dilution each step.

[4] = system: MCF-7 transient transfectants; assay: Chemosensitivity of transient transfectants (cell counting); assay type: cell-based; conditions: Homo sapiens, MCF7, 72 h, read-out: IC50 of chemical agent
Method: (§5) Six human cancer cell lines, including human colon cancer cell lines Caco-2, CC-M1, DLD-1; human prostate cancer cell lines DU145, PC-3; and human breast cancer cell line MCF-7, were tested in an experiment on improvement of chemosensitivity. Two expression plasmids, pNCRMP1 and pNCN3, and the pCI-neo vector (control plasmid), were used for transfection, respectively. The general cultivation conditions and transfection procedures were the same as described in Example 3.
(§6) Treatment of transient transfected cell lines using chemical agent was immediately performed as follows, and quantification of viable cells was performed by counting using hemocytometer after 3-days incubation at 37° C.: • (1) Three types of transient transfected human colorectal cancer cells were treated with 5-fluorouracil; • (2) The transient transfected human prostate cancer cell line DU145 was treated with Adriamycin™ (doxorubicin), cyclophosphamide and etoposide; • (3) The transient transfected human prostate cancer cell line PC3 was treated with cyclophosphamide, etoposide, and paclitaxel; and, • (4) The transient transfected human breast cancer cell line MCF-7 was treated with Adriamycin™ (doxorubicin) and paclitaxel.

[5] = system: PC-3 transient transfectants; assay: as above; assay type: cell-based; conditions: Homo sapiens, 72 h, read-out: IC50 of chemical agent
Method: as §5, §6

[6] = system: CC-M1 cells; assay: Cytotoxic effect of recombinant e-rCN3 protein; assay type: cell-based, human; conditions: 5 μM, three treatment cycles
Method: (§7) The growth inhibition effect of recombinant e-rCN3 protein was studied with five human cell lines, including the human colon cancer cell line CC-M1, the human breast cancer cell line MCF-7, two human prostate cancer cell lines PC-3 and DU145, and the human prostate epithelium cell line PZ-HPV-7. […] The cytotoxicity assay were performed using MTT method as described by Monks et al. (J. National Cancer Institute 83:757-767 (1991)) or using cell counting-based Hemocytometer method (R. Ian Freshney, WILEY-LISS: 186, 309-312 (2000)) as described in Example 3 and Example 9. Five micromolar (μM) e-rCN3 was applied twice on three prostate cell lines for 6 hours with an interval of 16 hours, while the human colon cancer cell and breast cancer cells were treated with three cycles.

[7] = system: MCF-7 cells; assay: Cytotoxic effect of recombinant e-rCN3 protein; assay type: cell-based, human; conditions: 5 μM, three treatment cycles
Method: as §7

[8] = system: PC-3 cells; assay: Cytotoxic effect of recombinant e-rCN3 protein; assay type: cell-based, human; conditions: 5 μM applied twice for 6 hours with an interval of 16 hours
Method: as §7

[9] = system: PZ-HPV-7 cells; assay: Cytotoxic effect of recombinant e-rCN3 protein; assay type: cell-based, human; conditions: 5 μM applied twice for 6 hours with an interval of 16 hours
Method: as §7

| IC50 ([4]; transient transfectant MCF-7/pCIneo (control plasmid), 3-days incubation) | IC50 ([4]; transient transfectant MCF-7/pNCN3, 3-days incubation) | IC50 ([4]; transient transfectant MCF-7/pNCRMP1, 3-days incubation) | IC50 ([5]; transient transfectant PC-3/pCIneo (control plasmid), 3-days incubation) | IC50 ([5]; transient transfectant PC-3/pNCN3, 3-days incubation) | IC50 ([5]; transient transfectant PC-3/pNCRMP1, 3-days incubation) | Molecule | IC50 ([1]; DU-145, stable transfectant DU145/pCI-neo/7 (control plasmid), MTT) | IC50 ([1]; DU-145, stable transfectant DU145/pNCRMP1/2, MTT) | IC50 ([2]; NCI-H520, stable transfectant H520/pCI-neo/1 (control plasmid), MTT) | IC50 ([2]; NCI-H520, stable transfectant H520/pNCN1/1, MTT) | IC50 ([2]; NCI-H520, stable transfectant H520/pNCN3/1, MTT) | IC50 ([2]; NCI-H520, stable transfectant H520/pNCN4/1, MTT) | IC50 ([2]; NCI-H520, stable transfectant H520/pNCRMP1/1, MTT) | IC50 [3] | growth inhibition effect [6] | growth inhibition effect [7] | growth inhibition effect [8] | growth inhibition effect [9] |
| --- | --- | --- | --- | --- | --- | --- | --- | --- | --- | --- | --- | --- | --- | --- | --- | --- | --- | --- |
| < 1 nM | 44 nM | < 1 nM | 87 nM | 10 nM | 69 nM | CC(=O)O[C@H]1C(=O)[C@@]2(C)[C@H]([C@H](OC(=O)c3ccccc3)[C@]3(O)C[C@H](OC(=O)[C@H](O)[C@@H](NC(=O)c4ccccc4)c4ccccc4)C(C)=C1C3(C)C)[C@]1(OC(C)=O)CO[C@@H]1C[C@@H]2O [paclitaxel] | 8 µM | 0.02 µM | 31 nM | 12 nM | < 8 nM | < 8 nM | 12 nM | 6.53 µM |  |  |  |  |
|  |  |  |  |  |  | e-rCN3: recombinant CN3 domain of hCRMP-1 (amino acids 208 to 480) expressed in E. coli from pE22bCN3 |  |  |  |  |  |  |  |  | over 60% | over 60% | approximately 40% | no growth inhibition effect |
